Measured values published in patent US4857521A, “Trialkylsilyl pyridinium cephalosporin antibiotics” (Sanwa Kagaku Kenkyusho Co., Ltd., priority 1986, dated 1989).
Structures can show the parent of a compound that is named as a salt.

What was measured:
Format in all cases: cell-based
K. pneumoniae NCTC 9632 = assay: MIC by agar plate dilution method, K. pneumoniae NCTC 9632; settings: for MIC: Klebsiella pneumoniae, NCTC9632, seeding 10^6 cells/ml, read-out: minimum inhibitory concentration (MIC)
Protocol: (§1) Each series of dilution was prepared with use of testing compounds prepared by the Examples and control compound of Gentamicin as well as a liquid medium. The minimum inhibitory concentration (MIC in μg/ml) to each pathogen (seeding amount: 10^6 cells/ml) was determined, in accordance with the standard method (agar plate dilution method) by the Chemotherapy Society of Japan.

C. fleundii NIH 10018-68 = assay: MIC by agar plate dilution method, C. fleundii NIH 10018-68; settings: for MIC: read-out: minimum inhibitory concentration (MIC)
Protocol: as §1

E. coli K-12 = assay: MIC by agar plate dilution method, E. coli K-12; settings: for MIC: Escherichia coli, K12, seeding 10^6 cells/ml, read-out: minimum inhibitory concentration (MIC)
Protocol: as §1

E. coli NIH = assay: MIC by agar plate dilution method, E. coli NIH; settings: seeding 10^6 cells/ml; for MIC: Escherichia coli, read-out: minimum inhibitory concentration (MIC)
Protocol: as §1

S. typhi T-287 = assay: MIC by agar plate dilution method, S. typhi T-287; settings: seeding 10^6 cells/ml; for MIC: Salmonella enterica, read-out: minimum inhibitory concentration (MIC)
Protocol: as §1

P. vulgaris OX-19 = assay: MIC by agar plate dilution method, P. vulgaris OX-19; settings: for MIC: Proteus vulgaris, OX19, seeding 10^6 cells/ml, read-out: minimum inhibitory concentration (MIC)
Protocol: as §1

P. aeruginosa Nc-5 = assay: MIC by agar plate dilution method, P. aeruginosa Nc-5; settings: for MIC: Pseudomonas aeruginosa, NC5, seeding 10^6 cells/ml, read-out: minimum inhibitory concentration (MIC)
Protocol: as §1

P. rettgeri NIH 96 = assay: MIC by agar plate dilution method, P. rettgeri NIH 96; settings: for MIC: Providencia rettgeri, NIH96, seeding 10^6 cells/ml, read-out: minimum inhibitory concentration (MIC)
Protocol: as §1

S. flexneri 2a EW-10 = assay: MIC by agar plate dilution method, S. flexneri 2a EW-10; settings: Shigella flexneri, 2AEW10, seeding 10^6 cells/ml, read-out: minimum inhibitory concentration (MIC)
Protocol: as §1

Row | Molecule | MIC (K. pneumoniae NCTC 9632) [µg/mL] | MIC (C. fleundii NIH 10018-68) [µg/mL] | MIC (E. coli K-12) [µg/mL] | MIC (E. coli NIH) [µg/mL] | MIC (S. typhi T-287) [µg/mL] | MIC (P. vulgaris OX-19) [µg/mL] | MIC (P. aeruginosa Nc-5) [µg/mL] | MIC (P. rettgeri NIH 96) [µg/mL] | MIC (S. flexneri 2a EW-10) [µg/mL] | minimum inhibitory concentration (MIC) (K. pneumoniae NCTC 9632; seeding 10^6 cells/ml) [µg/mL] | minimum inhibitory concentration (MIC) (C. fleundii NIH 10018-68; C. fleundii NIH 10018-68, seeding 10^6 cells/ml, agar plate dilution) [µg/mL] | minimum inhibitory concentration (MIC) (E. coli K-12; seeding 10^6 cells/ml) [µg/mL] | minimum inhibitory concentration (MIC) (E. coli NIH) [µg/mL] | minimum inhibitory concentration (MIC) (S. typhi T-287) [µg/mL] | minimum inhibitory concentration (MIC) (P. vulgaris OX-19; seeding 10^6 cells/ml) [µg/mL] | minimum inhibitory concentration (MIC) (P. aeruginosa Nc-5; seeding 10^6 cells/ml) [µg/mL] | minimum inhibitory concentration (MIC) (P. rettgeri NIH 96; seeding 10^6 cells/ml) [µg/mL]
1 | CO/N=C(\C(=O)N[C@@H]1C(=O)N2C(C(=O)[O-])=C(C[n+]3cccc([Si](C)(C)C)c3)CS[C@H]12)c1csc(N)n1 [Example 1, [6R-[6α,7β(Z)]]-1-[7-[[(2-Amino-4-thiazolyl)(methoxyimino)acetyl]amino]-2-carboxy-8-oxo-5-thia-1-azabicyclo[4,2,0]oct-2-en-3-yl]methyl-3-trimethylsilylpyridinium hydroxide, inner salt] | 0.39 | < 0.2 | 0.39 | < 0.2 | < 0.2 | < 0.2 | 1.56 | < 0.2 | < 0.2 | – | – | – | – | – | – | – | –
2 | CO/N=C(\C(=O)N[C@@H]1C(=O)N2C(C(=O)[O-])=C(C[n+]3ccc([Si](C)(C)C)cc3)CS[C@H]12)c1csc(N)n1 [Example 2, [6R-[6α,7β(Z)]]-1-[7-[[(2-Amino-4-thiazolyl)(methoxyimino)acetyl]amino]-2-carboxy-8-oxo-5-thia-1-azabicyclo[4,2,0]oct-2-en-3-yl]methyl-4-trimethylsilylpyridinium hydroxide, inner salt] | 0.78 | < 0.2 | 0.78 | < 0.2 | 0.39 | < 0.2 | 6.25 | < 0.2 | 0.39 | – | – | – | – | – | – | – | –
3 | CO/N=C(\C(=O)N[C@@H]1C(=O)N2C(C(=O)[O-])=C(C[n+]3ccc(OC)c([Si](C)(C)C)c3)CS[C@H]12)c1csc(N)n1 [Example 3, [6R-[6α,7β(Z)]]-1-[7-[[(2-Amino-4-thiazolyl)(methoxyimino)acetyl]amino]-2-carboxy-8-oxo-5-thia-1-azabicyclo[4,2,0]oct-2-en-3-yl]methyl-4-methoxy-3-trimethylsilylpyridinium hydroxide, inner salt] | 0.78 | 0.78 | 0.78 | 0.78 | 0.39 | < 0.2 | 6.25 | < 0.2 | 0.39 | – | – | – | – | – | – | – | –
4 | Gentamicin [reference compound] | – | – | – | – | – | – | – | – | – | 0.78 | 0.39 | 0.78 | 0.78 | 0.78 | 3.13 | 3.13 | < 0.20
